What was measured:
[1] = tested on: lung carcinoma; assay: antitumor activity on experimental tumor strains; format: in vivo; settings: intraperitoneal and intratumoral introduction, MTD
[2] = tested on: Ehrlich's solid tumor; assay: antitumor activity on experimental tumor strains; format: in vivo; settings: intraperitoneal and intratumoral introduction, MTD
[3] = tested on: mamma adenocarcinoma Ca-755; assay: antitumor activity on experimental tumor strains; format: in vivo; settings: intraperitoneal and intratumoral introduction, MTD
[4] = tested on: sarcoma 37; assay: antitumor activity on experimental tumor strains; format: in vivo; settings: intraperitoneal and intratumoral introduction, MTD
[5] = tested on: lymphocytic leukemia P-388; assay: antitumor activity on experimental tumor strains; format: in vivo; settings: intraperitoneal and intratumoral introduction, MTD
[6] = tested on: lymphoid leukemia L-1210; assay: antitumor activity on experimental tumor strains; format: in vivo; settings: intraperitoneal and intratumoral introduction, MTD
[7] = tested on: sarcoma M-I; assay: antitumor activity on experimental tumor strains; format: in vivo; settings: intraperitoneal and intratumoral introduction, MTD
[8] = tested on: Walker carcinosarcoma; assay: antitumor activity on experimental tumor strains; format: in vivo; settings: intraperitoneal and intratumoral introduction, MTD
[9] = tested on: alveolar mucous cancer of liver PC-1; assay: antitumor activity on experimental tumor strains; format: in vivo; settings: alveolar mucous cancer of liver PC-1 of rats; intraperitoneal and intratumoral introduction, MTD
[10] = tested on: interweave tumors, resistant to prospidine, rubomicine and sarcolyzine; assay: efficiency on drug-resistant interweave tumors; format: in vivo
[11] = tested on: connective tissue; assay: oxidation-reduction processes and metabolism in connective tissue
[12] = tested on: T-cellular part of immunity; assay: immunomodulating activity
[13] = biological target: (Homo sapiens, UniProt P49354+P49356); assay: inhibition of RAS-oncoprotein farnesylation; format: biochemical
[14] = tested on: RAS-genes; assay: expression of RAS-genes; format: cell-based
[15] = tested on: tumor cells; assay: ATP content and apoptosis of tumor cells; format: cell-based

Sequence of (Homo sapiens, UniProt P49354+P49356) (P49356 whole entry, one chain of several): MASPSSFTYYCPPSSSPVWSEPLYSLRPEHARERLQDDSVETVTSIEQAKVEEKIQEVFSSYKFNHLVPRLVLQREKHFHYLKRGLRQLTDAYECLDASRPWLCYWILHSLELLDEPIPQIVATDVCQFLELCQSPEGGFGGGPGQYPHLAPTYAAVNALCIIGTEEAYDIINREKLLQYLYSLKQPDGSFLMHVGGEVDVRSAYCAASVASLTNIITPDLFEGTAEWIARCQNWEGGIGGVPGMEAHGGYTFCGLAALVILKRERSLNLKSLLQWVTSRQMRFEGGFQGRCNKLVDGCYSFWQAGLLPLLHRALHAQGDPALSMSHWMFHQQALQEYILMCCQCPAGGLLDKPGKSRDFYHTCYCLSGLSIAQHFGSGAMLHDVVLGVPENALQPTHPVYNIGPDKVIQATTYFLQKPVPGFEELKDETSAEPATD

1(10)β-epoxy-13-dimethylamino-5,7α,6,11β(H)-guaia-3(4)-en-6,12-olide hydrochloride [Arglabin]
sensitivity of tumor strain [1]: sensitive | sensitivity of tumor strain [2]: sensitive | sensitivity of tumor strain [3]: sensitive | sensitivity of tumor strain [4]: sensitive | sensitivity of tumor strain [5]: sensitive | sensitivity of tumor strain [6]: sensitive | sensitivity of tumor strain [7]: sensitive | sensitivity of tumor strain [8]: sensitive | sensitivity of tumor strain [9]: sensitive | efficiency in relation to resistant interweave tumors [10]: shows efficiency | oxidation-reduction processes and metabolism in a connective tissue [11]: has ability to optimize oxidation-reduction processes and a metabolism in a connective tissue | correction of immunodepressive effect of cytostatic [12]: has a property to correct immunodepressive effect of cytostatic cells | immunomodulating activity ([12]; depends on dose): shows primary influence on the T-cellular part of immunity | inhibition of RAS-oncoproteins pharnesilis [13]: competitive inhibitor | expression of RAS-genes [14]: reduces | ATP content [15]: reduces | tumor cells apoptosis [15]: invokes tumor cells apoptosis

— US20090171105A1 (priority 2006, published 2009)
